Numbers after ± are expanded uncertainties.
How the values were obtained:
[1] = for molar entropy: 101.33 kPa, Vacuum adiabatic calorimetry; for vapor or sublimation pressure: Ebulliometric method (Recirculating still)
[2] = Molar enthalpy of transition or fusion; settings: Crystal; Adiabatic calorimetry

CCCC(=O)OC [methyl butanoate]
molar entropy ([1]; 5 K, Crystal): 0.119 ± 0.017 J/K/mol | molar entropy ([1]; 10 K, Crystal): 0.949 ± 0.027 J/K/mol | molar entropy ([1]; 15 K, Crystal): 2.987 ± 0.046 J/K/mol | molar entropy ([1]; 20 K, Crystal): 6.126 ± 0.068 J/K/mol | molar entropy ([1]; 25 K, Crystal): 10.07 ± 0.085 J/K/mol | molar entropy ([1]; 30 K, Crystal): 14.55 ± 0.1 J/K/mol | molar entropy ([1]; 35 K, Crystal): 19.38 ± 0.12 J/K/mol | molar entropy ([1]; 40 K, Crystal): 24.39 ± 0.14 J/K/mol | molar entropy ([1]; 45 K, Crystal): 29.43 ± 0.15 J/K/mol | molar entropy ([1]; 50 K, Crystal): 34.51 ± 0.17 J/K/mol | molar entropy ([1]; 55 K, Crystal): 39.59 ± 0.18 J/K/mol | molar entropy ([1]; 60 K, Crystal): 44.66 ± 0.2 J/K/mol | molar entropy ([1]; 65 K, Crystal): 49.71 ± 0.21 J/K/mol | molar entropy ([1]; 70 K, Crystal): 54.67 ± 0.23 J/K/mol | molar entropy ([1]; 75 K, Crystal): 59.5 ± 0.24 J/K/mol | molar entropy ([1]; 80 K, Crystal): 64.19 ± 0.25 J/K/mol | molar entropy ([1]; 85 K, Crystal): 68.76 ± 0.27 J/K/mol | molar entropy ([1]; 90 K, Crystal): 73.24 ± 0.41 J/K/mol | molar entropy ([1]; 95 K, Crystal): 77.63 ± 0.42 J/K/mol | molar entropy ([1]; 100 K, Crystal): 81.94 ± 0.42 J/K/mol | molar entropy ([1]; 110 K, Crystal): 90.3 ± 0.44 J/K/mol | molar entropy ([1]; 120 K, Crystal): 98.36 ± 0.45 J/K/mol | molar entropy ([1]; 130 K, Crystal): 106.18 ± 0.46 J/K/mol | molar entropy ([1]; 140 K, Crystal): 113.66 ± 0.47 J/K/mol | molar entropy ([1]; 150 K, Crystal): 120.98 ± 0.48 J/K/mol | molar entropy ([1]; 160 K, Crystal): 128.13 ± 0.49 J/K/mol | molar entropy ([1]; 170 K, Crystal): 135.11 ± 0.5 J/K/mol | molar entropy ([1]; 180 K, Crystal): 141.93 ± 0.51 J/K/mol | molar entropy ([1]; 190 K, Crystal): 148.58 ± 0.52 J/K/mol | molar entropy ([1]; 190.09 K, Crystal): 148.66 ± 0.52 J/K/mol | molar entropy ([1]; 190.09 K, Liquid): 208.44 ± 0.61 J/K/mol | molar entropy ([1]; 200 K, Liquid): 217.84 ± 0.63 J/K/mol | molar entropy ([1]; 210 K, Liquid): 226.9 ± 0.64 J/K/mol | molar entropy ([1]; 220 K, Liquid): 235.55 ± 0.65 J/K/mol | molar entropy ([1]; 230 K, Liquid): 243.86 ± 0.67 J/K/mol | molar entropy ([1]; 240 K, Liquid): 251.84 ± 0.68 J/K/mol | molar entropy ([1]; 250 K, Liquid): 259.58 ± 0.69 J/K/mol | molar entropy ([1]; 260 K, Liquid): 267.06 ± 0.7 J/K/mol | molar entropy ([1]; 270 K, Liquid): 274.38 ± 0.71 J/K/mol | molar entropy ([1]; 280 K, Liquid): 281.36 ± 0.72 J/K/mol | molar entropy ([1]; 290 K, Liquid): 288.26 ± 0.73 J/K/mol | molar entropy ([1]; 298.15 K, Liquid): 293.75 ± 0.74 J/K/mol | molar entropy ([1]; 300 K, Liquid): 295 ± 0.74 J/K/mol | molar entropy ([1]; 310 K, Liquid): 301.48 ± 0.75 J/K/mol | vapor or sublimation pressure ([1]; 316.24 K, Liquid): 10.8 ± 0.054 kPa | molar entropy ([1]; 320 K, Liquid): 307.88 ± 0.76 J/K/mol | vapor or sublimation pressure ([1]; 321.02 K, Liquid): 13.43 ± 0.054 kPa | vapor or sublimation pressure ([1]; 326.17 K, Liquid): 16.83 ± 0.055 kPa | molar entropy ([1]; 330 K, Liquid): 314.12 ± 0.77 J/K/mol | vapor or sublimation pressure ([1]; 331.33 K, Liquid): 20.88 ± 0.056 kPa | vapor or sublimation pressure ([1]; 335.84 K, Liquid): 25.07 ± 0.057 kPa | molar entropy ([1]; 340 K, Liquid): 320.27 ± 0.78 J/K/mol | vapor or sublimation pressure ([1]; 341.17 K, Liquid): 30.91 ± 0.059 kPa | vapor or sublimation pressure ([1]; 346.14 K, Liquid): 37.26 ± 0.061 kPa | molar entropy ([1]; 350 K, Liquid): 326.34 ± 0.79 J/K/mol | vapor or sublimation pressure ([1]; 351.81 K, Liquid): 45.83 ± 0.064 kPa | vapor or sublimation pressure ([1]; 357.57 K, Liquid): 56.12 ± 0.069 kPa | molar entropy ([1]; 360 K, Liquid): 332.33 ± 0.8 J/K/mol | vapor or sublimation pressure ([1]; 363.05 K, Liquid): 67.49 ± 0.074 kPa | vapor or sublimation pressure ([1]; 368.86 K, Liquid): 81.57 ± 0.08 kPa | molar entropy ([1]; 370 K, Liquid): 338.15 ± 0.81 J/K/mol | vapor or sublimation pressure ([1]; 373.81 K, Liquid): 95.31 ± 0.086 kPa | vapor or sublimation pressure ([1]; 374.54 K, Liquid): 97.44 ± 0.087 kPa | vapor or sublimation pressure ([1]; 375.25 K, Liquid): 99.6 ± 0.089 kPa | Triple point temperature ([1]; Crystal, fractional melting): 190.1 ± 0.1 K | Molar enthalpy of transition or fusion [2]: 2.72 ± 0.0287 kcal/mol

From the NIST ThermoML archive (doi:10.1016/j.jct.2011.10.001)
